Broadly, the IC50 is the midpoint of a concentration-inhibition curve.

The record followed here is patent publication US20170022171A1, “2,5-DISUBSTITUTED CYCLOPENTANECARBOXYLIC ACIDS AND THEIR USE” (Bayer Pharma Aktiengesellschaft, priority 2014, published 2017).

Holding throughout (format): biochemical
Assay [1] deals with T1, MMP-3 (Homo sapiens, UniProt P08254).
T1 construct: purchased R&D Systems 513-MP
Briefly: In vitro MMP-3 inhibition test. The source says:
(§1) The MMP-mediated amidolytic cleavage of a suitable peptide substrate leads to an increase in fluorescent light here too. The signal intensity of the fluorescent light is directly proportional to the enzyme activity. The active concentration of a test compound at which half the enzyme is inhibited (50% signal intensity of the fluorescent light) is reported as the IC50 value.
Recombinant MMP-3 (from R&D Systems, 513-MP) is chemically activated in accordance with the manufacturer's instructions using APMA. 1 μl of the test compound to be analysed (as a solution in DMSO, suitable concentrations, for example, 1 nM to 30 μM) is pipetted into 24 μl of activated enzyme (final concentration, for example, 2 nM) in reaction buffer (50 mM Tris/HCl pH 7.5, 10 mM CaCl2, 150 mM NaCl, 0.05% Brij®-35) in a white 384-hole microtiter plate (MTP). The enzymatic reaction is started by adding the intramolecularly quenched Mca-Arg-Pro-Lys-Pro-Val-Glu-Nval-Trp-Arg-Lys(Dnp)-NH2 substrate (final concentration, for example, 10 μM; R&D Systems, ES-002), so as to result in a total test volume of 50 The course of the MMP-3 reaction is measured by measuring the fluorescence intensity (excitation 320 nm, emission 410 nm) over a suitable period of time (for example over 120 min at a temperature of 32° C.).

The target in assay [2] is T2, MMP-8 (Homo sapiens, UniProt P22894).
T2 construct: purchased R&D Systems 908-MP
T2 sequence (P22894 101-467): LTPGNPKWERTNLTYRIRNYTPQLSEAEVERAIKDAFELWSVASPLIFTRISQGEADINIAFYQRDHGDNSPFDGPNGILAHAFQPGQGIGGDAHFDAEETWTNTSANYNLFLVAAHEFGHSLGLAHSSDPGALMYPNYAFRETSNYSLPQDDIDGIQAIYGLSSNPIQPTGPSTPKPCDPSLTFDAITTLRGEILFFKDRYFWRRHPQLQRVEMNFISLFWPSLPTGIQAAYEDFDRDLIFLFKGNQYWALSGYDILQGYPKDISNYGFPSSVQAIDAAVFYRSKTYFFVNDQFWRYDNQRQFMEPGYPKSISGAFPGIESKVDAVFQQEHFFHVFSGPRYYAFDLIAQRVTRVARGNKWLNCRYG
The assay can be described thus: In vitro MMP-8 inhibition test.
Description: as §1
(§2) Recombinant MMP-8 (from R&D Systems, 908-MP) is chemically activated in accordance with the manufacturer's instructions using APMA. 1 μl of the test compound to be analysed (as a solution in DMSO, suitable concentrations, for example, 1 nM to 30 μM) is pipetted into 24 μl of activated enzyme (final concentration, for example, 0.5 nM) in reaction buffer (50 mM Tris/HCl pH 7.5, 10 mM CaCl2, 150 mM NaCl, 0.05% Brij®-35) in a white 384-hole microtiter plate (MTP). The enzymatic reaction is started by adding the intramolecularly quenched Mca-Pro-Leu-Gly-Leu-Dpa(Dnp)-Ala-Arg-NH2 substrate (final concentration, for example, 10 μM; R&D Systems, ES-001), so as to result in a total test volume of 50 μl. The course of the MMP-8 reaction is measured by measuring the fluorescence intensity (excitation 320 nm, emission 410 nm) over a suitable period of time (for example over 120 min at a temperature of 32° C.).

Assay [3] has as its target T3, MMP-9 (Homo sapiens, UniProt P14780).
T3 construct: purchased R&D Systems 911-MP
The assay can be described thus: In vitro MMP-9 inhibition test.
Description: as §1
as §2, with “MMP-9” for “MMP-8”, “911-MP)” for “908-MP)”, “0.1” for “0.5”

In assay [4] the target is T4, mouse MMP-8 (Mus musculus, UniProt O70138).
T4 construct: purchased R&D Systems 2904-MP
T4 sequence (O70138 101-465): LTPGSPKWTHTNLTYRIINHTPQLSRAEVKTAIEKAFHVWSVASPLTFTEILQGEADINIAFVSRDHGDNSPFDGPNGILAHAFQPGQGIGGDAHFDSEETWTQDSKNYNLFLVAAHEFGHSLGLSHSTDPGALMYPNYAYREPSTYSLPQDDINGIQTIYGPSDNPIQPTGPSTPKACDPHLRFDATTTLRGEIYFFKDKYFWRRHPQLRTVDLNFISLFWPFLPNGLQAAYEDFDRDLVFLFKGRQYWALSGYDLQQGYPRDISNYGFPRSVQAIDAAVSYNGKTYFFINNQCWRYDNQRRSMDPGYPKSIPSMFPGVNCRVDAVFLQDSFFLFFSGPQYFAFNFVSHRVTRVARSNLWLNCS
The assay can be described thus: In vitro mouse MMP-8 inhibition test.
Description: as §1
as §2, with “Recombinant mouse” for “Recombinant”, “Systems, 2904-MP)” for “Systems, 908-MP)”, “example, 2” for “example, 0.5”, “quenched Mca-Lys-Pro-Leu-Gly-Leu-Dpa(Dnp)-Ala-Arg-NH2” for “quenched Mca-Pro-Leu-Gly-Leu-Dpa(Dnp)-Ala-Arg-NH2”, “example, 5” for “example, 10”, “Systems, ES-010),” for “Systems, ES-001),”

The target of assay [5] is T5, mouse MMP-12 (Mus musculus, UniProt P34960).
T5 construct: purchased R&D Systems 3467-MP
T5 sequence (P34960 110-473): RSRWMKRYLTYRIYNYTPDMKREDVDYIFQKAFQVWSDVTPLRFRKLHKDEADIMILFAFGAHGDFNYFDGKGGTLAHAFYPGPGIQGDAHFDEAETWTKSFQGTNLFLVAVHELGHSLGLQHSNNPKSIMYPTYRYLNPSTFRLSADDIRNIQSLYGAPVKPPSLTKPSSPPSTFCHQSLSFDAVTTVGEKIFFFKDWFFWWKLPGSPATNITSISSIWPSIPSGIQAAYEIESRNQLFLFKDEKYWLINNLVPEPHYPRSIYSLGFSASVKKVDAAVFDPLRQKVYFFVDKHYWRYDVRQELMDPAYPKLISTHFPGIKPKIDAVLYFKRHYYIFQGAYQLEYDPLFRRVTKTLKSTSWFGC
The assay can be described thus: In vitro mouse MMP-12 inhibition test (standard or high-sensitivity).
Description: as §1
Recombinant mouse MMP-12 (from R&D Systems, 3467-MP) is autocatalytically activated in accordance with the manufacturer's instructions. 1 μl of the test compound to be analysed (as a solution in DMSO, suitable concentrations, for example, 1 nM to 30 μM) is pipetted into 24 μl of activated enzyme (final concentration, for example, 1 nM) in reaction buffer (50 mM Tris/HCl pH 7.5, 10 mM CaCl2, 150 mM NaCl, 0.05% Brij®-35) in a white 384-hole microtiter plate (MTP). The enzymatic reaction is started by adding the intramolecularly quenched Mca-Lys-Pro-Leu-Gly-Leu-Dpa(Dnp)-Ala-Arg-NH2 substrate (final concentration, for example, 5 μM; R&D Systems, ES-010), so as to result in a total test volume of 50 The course of the MMP-12 reaction is measured by measuring the fluorescence intensity (excitation 320 nm, emission 410 nm) over a suitable period of time (for example over 120 min at a temperature of 32° C.).
In this case, an enzyme concentration ten times lower is used (final concentration, for example, 0.1 nM) in order to achieve an elevated test sensitivity. The incubation period chosen for the test is correspondingly longer (for example 16 hours).

T3 sequence (P14780 107-707 limits assumed): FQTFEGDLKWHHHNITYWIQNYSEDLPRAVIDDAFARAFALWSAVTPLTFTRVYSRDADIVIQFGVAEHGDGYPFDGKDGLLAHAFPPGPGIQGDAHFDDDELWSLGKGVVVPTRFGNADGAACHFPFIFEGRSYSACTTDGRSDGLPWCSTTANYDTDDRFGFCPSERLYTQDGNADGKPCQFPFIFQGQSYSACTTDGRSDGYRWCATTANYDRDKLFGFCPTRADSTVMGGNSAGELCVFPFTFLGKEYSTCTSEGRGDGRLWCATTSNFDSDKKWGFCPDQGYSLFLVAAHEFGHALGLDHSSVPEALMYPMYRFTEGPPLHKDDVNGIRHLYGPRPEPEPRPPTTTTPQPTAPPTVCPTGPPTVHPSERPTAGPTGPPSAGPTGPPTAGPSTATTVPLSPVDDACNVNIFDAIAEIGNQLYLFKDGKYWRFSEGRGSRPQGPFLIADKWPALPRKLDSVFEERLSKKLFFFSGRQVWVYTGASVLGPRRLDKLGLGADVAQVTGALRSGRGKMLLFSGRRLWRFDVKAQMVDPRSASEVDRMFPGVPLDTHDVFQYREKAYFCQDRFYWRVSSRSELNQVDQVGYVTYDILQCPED
T1 sequence (P08254 100-477): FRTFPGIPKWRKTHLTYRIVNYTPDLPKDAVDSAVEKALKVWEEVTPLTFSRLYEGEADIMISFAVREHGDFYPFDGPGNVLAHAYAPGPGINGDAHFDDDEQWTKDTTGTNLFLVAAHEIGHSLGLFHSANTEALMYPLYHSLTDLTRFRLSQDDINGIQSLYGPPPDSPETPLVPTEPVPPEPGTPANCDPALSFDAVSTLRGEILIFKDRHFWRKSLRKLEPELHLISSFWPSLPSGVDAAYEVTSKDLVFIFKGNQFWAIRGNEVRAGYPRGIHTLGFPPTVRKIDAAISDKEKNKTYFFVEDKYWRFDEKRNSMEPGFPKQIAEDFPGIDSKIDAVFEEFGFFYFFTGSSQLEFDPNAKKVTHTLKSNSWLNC

Consider `O=C(O)[C@@H]1[C@@H](Cn2nnc3ccc(C(F)(F)F)cc3c2=O)CC[C@H]1C(=O)c1ccc(SCc2cccc(Cl)c2)cc1` (single isomer, unassigned) [Example 77, (+)-(1RS,2RS,5SR)-2-{4-[(3-Chlorobenzyl)sulphanyl]benzoyl}-5-{[4-oxo-6-(trifluoromethyl)-1,2,3-benzotriazin-3(4H)-yl]methyl}cyclopentanecarboxylic acid], for which the IC50 in assay [1] was 100 nM; in assay [2], 41 nM; in assay [3] it was 550 nM; in assay [4], 130 nM; in assay [5], 2 nM.
In the same order, the values of `Cc1ccc2nnn(C[C@H]3CC[C@@H](C(=O)c4ccc(OCc5cccc(Cl)c5)cc4)[C@@H]3C(=O)O)c(=O)c2c1` (single isomer, unassigned) [Example 104, (+)-(1RS,2RS,5SR)-2-{4-[(3-Chlorobenzyl)oxy]benzoyl}-5-[(6-methyl-4-oxo-1,2,3-benzotriazin-3(4H)-yl)methyl]cyclopentanecarboxylic acid] are 260 nM, 31 nM, 110 nM, 130 nM and 1.1 nM.
In the same order, the values of `Cc1ccc2nnn(C[C@H]3CC[C@@H](C(=O)c4ccc(OCc5cccc(OC(F)(F)F)c5)cc4)[C@@H]3C(=O)O)c(=O)c2c1` (single isomer, unassigned) [Example 110, (+)-(1RS,2SR,5RS)-2-[(6-Methyl-4-oxo-1,2,3-benzotriazin-3(4H)-yl)methyl]-5-(4-{[3-(trifluoromethoxy)benzyl]oxy}benzoyl)cyclopentanecarboxylic acid] are 920 nM, 120 nM, 380 nM, 420 nM and 0.72 nM.
For the molecule `O=C(O)[C@@H]1[C@@H](Cn2nnc3ccc(C(F)(F)F)cc3c2=O)CC[C@H]1C(=O)c1ccc(OCCC2CCCCC2)cc1` (single isomer, unassigned) [Example 52, (+)-(1RS,2RS,5SR)-2-[4-(2-Cyclohexylethoxy)benzoyl]-5-{[4-oxo-6-(trifluoromethyl)-1,2,3-benzotriazin-3(4H)-yl]methyl}cyclopentanecarboxylic acid], the IC50 in assay [1] stood at 380 nM; in assay [2] it was 38 nM; in assay [3], 830 nM; in assay [4] it was 160 nM; in assay [5], 10 nM.
Take `O=C(O)[C@H]1[C@H](Cn2nnc3ccc(C(F)(F)F)cc3c2=O)CC[C@@H]1C(=O)c1ccc(OCCCC2CCCCC2)cc1` (racemic) [Example 56, (+/−)-(1RS,2RS,5SR)-2-{4-(3-Cyclohexylpropoxy)benzoyl}-5-{[4-oxo-6-(trifluoromethyl)-1,2,3-benzotriazin-3(4H)-yl]methyl}cyclopentanecarboxylic acid]: the concentration for half-maximal inhibition (IC50) worked out at 2000 nM in assay [1]; 580 nM in assay [2]; 4900 nM in assay [3]; 1100 nM in assay [4]; 21 nM in assay [5].
Turning to `Cc1ccc2nnn(C[C@@H]3CC[C@H](C(=O)c4ccc(OCc5cccc(C(F)(F)F)c5)cc4)[C@H]3C(=O)O)c(=O)c2c1` (racemic) [Example 100, (+/−)-(1RS,2SR,5RS)-2-[(6-Methyl-4-oxo-1,2,3-benzotriazin-3(4H)-yl)methyl]-5-(4-{[3-(trifluoromethyl)benzyl]oxy}benzoyl)cyclopentanecarboxylic acid], the IC50 in assay [1] was 1500 nM; in assay [2] it was 43 nM; in assay [3] it was 160 nM; in assay [4], 250 nM; in assay [5] it was 1.7 nM.
With `CCCCCOc1ccc(C(=O)[C@H]2CC[C@@H](Cn3nnc4ccc(C)cc4c3=O)[C@@H]2C(=O)O)cc1` (racemic) [Example 123, (+/−)-(1RS,2SR,5RS)-2-[(6-Methyl-4-oxo-1,2,3-benzotriazin-3(4H)-yl)methyl]-5-[4-(pentyloxy)benzoyl]cyclopentanecarboxylic acid], the concentration for half-maximal inhibition (IC50) was found to be 540 nM in assay [1]; 11 nM in assay [2]; 94 nM in assay [3]; 91 nM in assay [4]; 4.9 nM in assay [5].
In the same order, the values of `O=C(O)[C@H]1[C@H](Cn2nnc3ccccc3c2=O)CC[C@@H]1C(=O)c1ccc(OCCC2CCCCC2)cc1` (racemic) [Example 5, (+/−)-(1RS,2RS,5SR)-2-[4-(2-Cyclohexylethoxy)benzoyl]-5-[(4-oxo-1,2,3-benzotriazin-3(4H)-yl)methyl]cyclopentanecarboxylic acid] are 1500 nM, 250 nM, 960 nM, 360 nM and 1.8 nM.
In the same order, the values of `O=C(O)[C@H]1[C@H](Cn2nnc3ccccc3c2=O)CC[C@@H]1C(=O)c1ccc(OCc2ccc(F)cc2)cc1` (racemic) [Example 1, (+/−)-(1RS,2RS,5SR)-2-{4-[(4-Fluorobenzyl)oxy]benzoyl}-5-[(4-oxo-1,2,3-benzotriazin-3(4H)-yl)methyl]cyclopentanecarboxylic acid] are 170 nM, 2.5 nM, 4.7 nM, 18 nM and 0.61 nM.
In the same order, the values of `O=C(O)[C@@H]1[C@@H](Cn2nnc3ccc(C(F)(F)F)cc3c2=O)CC[C@H]1C(=O)c1ccc(SCc2ccc(Cl)c(Cl)c2)cc1` (single isomer, unassigned) [Example 80, (+)-(1RS,2RS,5SR)-2-{4-[(3,4-Dichlorobenzyl)sulphanyl]benzoyl}-5-{[4-oxo-6-(trifluoromethyl)-1,2,3-benzotriazin-3(4H)-yl]methyl}cyclopentanecarboxylic acid] are 150 nM, 52 nM, 780 nM, 130 nM and 4.3 nM.
